Reference: patent publication US5739114A, “Immunosuppressive cyclolignan derivatives” (Universidad de Salamanca, priority 1994, dated 1998)
Values after ≈ are worked out from the molar mass of the structure shown. Like-named read-outs stand apart in the source and are kept apart here.

Assays:
[1] = system: Graft-vs.-Host Reaction (spleen weight); experiment: in vivo Graft-vs.-Host Reaction (GVHR) test
Description: ^b % reduction of spleen weight with respect to non treated animals.

[2] = Cytotoxicity for monkey kidney fibroblasts; format: cell-based
Description: ^d IC50 (μg/ml) for monkey kidney fibroblasts.

[3] = system: graft (implant duration); experiment: in vivo Suppression Graft (SG) test
Description: ^c % of implant duration with respect to non treated animals.
^e 20% of the animals died in this experiment before the end of the
program (30 days of observation).

Structure (SMILES): COc1cc([C@@H]2c3cc(O)c(O)cc3C[C@H]3COC(=O)[C@H]32)cc(OC)c1OC [AP-37, 3,4-O-demethylenedeoxypicropodophyllin]
- GVHR index: % reduction of spleen weight with respect to non treated animals ([1]; dose 0.1 mg/kg/day (7 days)): 58%
- CC50 ([2]; read-out: Cytotox. IC50): > 20 µg/mL

Structure (SMILES): COc1cc([C@@H]2c3cc(O)c(O)cc3[C@@H](O)[C@H]3COC(=O)[C@H]23)cc(OC)c1OC [AP-39, 3,4-O-demethyleneepipodophyllotoxin]
- CC50 ([2]; read-out: Cytotox. IC50): > 10 µg/mL
- SG index: % of implant duration with respect to non treated animals ([3]; dose 1.5 mg/kg/day (7 days)): 200%

Structure (SMILES): COc1cc([C@@H]2c3cc(O)c(O)cc3[C@H](O)[C@H]3COC(=O)[C@H]23)cc(OC)c1OC [AP-40, 3,4-O-demethylenepodophyllotoxin]
- CC50 ([2]; read-out: Cytotox. IC50): 0.5 µg/mL (≈ 1.24 µM)
- SG index: % of implant duration with respect to non treated animals ([3]; dose 1.5 mg/kg/day (7 days)): 229%

Structure (SMILES): COC(=O)C1Oc2cc3c(cc2O1)[C@@H](c1cc(OC)c(OC)c(OC)c1)[C@@H]1C(=O)OC[C@@H]1C3 (stereo partly shown) [AP-47, 10-methoxycarbonyldeoxypicropodophyllin]
- GVHR index: % reduction of spleen weight with respect to non treated animals ([1]; dose 10 mg/kg/day (7 days)): 56%
- CC50 ([2]; read-out: Cytotox. IC50): 2.5 µg/mL (≈ 5.48 µM)

Structure (SMILES): O=P1(N(CCCl)CCCl)NCCCO1 (stereo not shown) [Cyclophosphamide, reference compound]
- GVHR index: % reduction of spleen weight with respect to non treated animals ([1]; dose 200 mg/kg/day (7 days)): 79%

Structure (SMILES): COC(=O)C1C2CN(c3ccccc3)N=C2c2cc3c(cc2C1c1cc(OC)c(OC)c(OC)c1)OCO3 (stereo not shown) [LL-4, methyl phenylpyrazopodophyllate]
- GVHR index: % reduction of spleen weight with respect to non treated animals ([1]; dose 1 mg/kg/day (7 days)): 53%
- CC50 ([2]; read-out: Cytotox. IC50): 1 µg/mL (≈ 1.94 µM)

Structure (SMILES): COc1cc(C2c3cc4c(cc3C3=NOCC3C2C(=O)O)OCO4)cc(OC)c1OC (stereo not shown) [LL-11, isoxazopodophyllic acid]
- CC50 [2]: > 10 µg/mL
- SG index: % of implant duration with respect to non treated animals ([3]; dose 0.15 mg/kg/day (7 days)): 204%
